Source: US20250163043A1 (TRANSTHERA SCIENCES (NANJING), INC., priority 2021, published 2025)

What was measured:
Assay type in all cases: biochemical
CDK9/CycT1 = CDK9/CycT1 (Homo sapiens, UniProt P50750); assay: ADP-Glo kinase assay on CDK enzymatic activity, CDK9/CycT1; settings: 10 concentrations from 10 μM, 4-fold, 60 min room temperature
Method in brief: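 Steps: compound (10 μM top, 4-fold series) plus kinase, 10 min RT; add substrate/ATP mix, 60 min RT; ADP-Glo reagent 40 min; detection reagent 40 min; read luminescence. Inhibition referenced to AZD4573 (1 μM) and DMSO vehicle; IC50 by nonlinear fit.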

CDK1/CycE1 = CDK1/CycE1 (Homo sapiens, UniProt P06493); assay: ADP-Glo kinase assay on CDK enzymatic activity, CDK1/CycE1; settings: ADP-Glo; 10 concentrations from 10 μM, 4-fold; 60 min room temperature; read-out: CDK1/CycE1/nM (IC50)
Method: (§1) Test samples: the compounds of the present invention, having structures shown above.
(§2) A 384-well white plate, a 96-well plate, a microplate oscillator, a centrifuge, and a microplate reader.
(§3) The compounds were dissolved in DMSO and diluted 4-fold in the 96-well plate to obtain stock solutions with 10 concentration gradients, and added into a 384-well plate system to obtain a series of 10 concentration gradients of compound solutions with final concentrations of 10 μM starting and 4-fold gradient decreasing. 1 μM AZD4573 was used as compound positive control (PC) and 0.5% DMSO as solvent vehicle control (VC), ten duplicated wells each for PC and VC.
(§4) 1 μL of compound solution and 2 μL of 2× kinase solution were transferred to each well, and the plate was centrifuged at 1000 g for 30 s and left at room temperature for 10 min. A mixture of 2× substrate and ATP was prepared in 1× kinase buffer. The reaction was started after adding 2 μL of substrate and ATP into the plate. The plate was centrifuged at 1000 g for 30 s. The assay plate was closed and left at room temperature for 60 min. The reaction system was added with 4 μL of ADP Glo reagent, centrifuged at 1000 rpm for 1 min, and incubated at room temperature for 40 min. The reaction system was added with 8 μL of kinase assay reagent, centrifuged at 1000 rpm for 1 min and incubated at room temperature for 40 min. The […] was read on Biotek.
(§5) The inhibition rate was calculated according to the following formula: […]
(§6) Lumcmpd: compound fluorescence reading; Lumpositive: average value of the fluorescence reading of positive compound control; Lumvehicle: average value of the fluorescence reading of solvent vehicle control.
(§7) IC50 values were fitted using GraphPad 7.0 based on inhibition rates of compounds at different concentrations.

CDK2/CycA2 = CDK2/CycA2 (Homo sapiens, UniProt P24941); assay: ADP-Glo kinase assay on CDK enzymatic activity, CDK2/CycA2; settings: 10 concentrations from 10 μM, 4-fold, 60 min room temperature
Description: as §1
(§8) ADP-Glo Kinase Assay (ADP-Glo kinase kit), DMSO (dimethyl sulfoxide), CDK9/CycT1 (cyclin-dependent kinase 9/cyclin T1), CDK tide (cyclin-dependent kinase substrate peptide fragments), CDK1/CycE1 (cyclin-dependent kinase 1/cyclin E1), CDK2/CycA2 (cyclin-dependent kinase 2/cyclin A2), CDK3/CycE1 (cyclin-dependent kinase 3/cyclin E1), CDK4/CycD3 (cyclin-dependent kinase 4/cyclin D3), CDK5/p25NCK (cyclin-dependent kinase 5/p25), and AZD 4573.
as §2, §3, §4, §5, §6, §7

CDK3/CycE1 = CDK3/CycE1 (Homo sapiens, UniProt Q00526); assay: ADP-Glo kinase assay on CDK enzymatic activity, CDK3/CycE1; settings: 10 concentrations from 10 μM, 4-fold, 60 min room temperature
Description: as §1, §8, §2, §3, §4, §5, §6, §7

CDK5/p25NCK = CDK5/p25NCK (Homo sapiens, UniProt Q00535); assay: ADP-Glo kinase assay on CDK enzymatic activity, CDK5/p25NCK; settings: 10 concentrations from 10 μM, 4-fold, 60 min room temperature
Description: as §1, §8, §2, §3, §4, §5, §6, §7

CDK3/CycE1, sequence (Q00526 whole entry, species assumed): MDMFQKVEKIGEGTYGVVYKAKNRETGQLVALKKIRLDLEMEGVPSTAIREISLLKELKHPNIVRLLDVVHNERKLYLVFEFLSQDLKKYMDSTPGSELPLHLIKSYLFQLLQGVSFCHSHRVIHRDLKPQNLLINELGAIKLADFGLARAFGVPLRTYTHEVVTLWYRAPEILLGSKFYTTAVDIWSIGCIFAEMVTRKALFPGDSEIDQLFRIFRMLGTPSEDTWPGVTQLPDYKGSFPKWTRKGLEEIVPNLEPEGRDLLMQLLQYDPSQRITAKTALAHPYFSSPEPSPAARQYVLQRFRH
CDK3/CycE1, sequence (P24864 whole entry partner, species assumed): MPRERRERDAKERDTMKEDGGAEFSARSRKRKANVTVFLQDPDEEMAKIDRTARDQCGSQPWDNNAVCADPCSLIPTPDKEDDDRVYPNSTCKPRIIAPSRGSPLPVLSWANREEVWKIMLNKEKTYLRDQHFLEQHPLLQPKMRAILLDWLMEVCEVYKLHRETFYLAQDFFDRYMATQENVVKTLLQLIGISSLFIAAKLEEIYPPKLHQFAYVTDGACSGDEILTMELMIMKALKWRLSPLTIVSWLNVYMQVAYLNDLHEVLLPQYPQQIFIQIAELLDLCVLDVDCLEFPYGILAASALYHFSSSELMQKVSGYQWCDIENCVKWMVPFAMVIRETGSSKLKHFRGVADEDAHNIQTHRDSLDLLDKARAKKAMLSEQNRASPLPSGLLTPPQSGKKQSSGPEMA
CDK1/CycE1, sequence (P06493 whole entry, species assumed): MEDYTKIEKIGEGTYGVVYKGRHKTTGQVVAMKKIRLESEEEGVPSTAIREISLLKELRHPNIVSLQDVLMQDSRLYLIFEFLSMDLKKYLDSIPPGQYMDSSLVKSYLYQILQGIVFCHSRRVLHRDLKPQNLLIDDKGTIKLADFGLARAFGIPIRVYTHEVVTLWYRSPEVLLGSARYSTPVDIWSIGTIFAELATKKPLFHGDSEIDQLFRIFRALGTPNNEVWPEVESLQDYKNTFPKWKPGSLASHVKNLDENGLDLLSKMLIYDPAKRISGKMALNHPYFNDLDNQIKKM
CDK1/CycE1, sequence (P24864 whole entry partner, species assumed): as the sequence (P24864 whole entry partner, species assumed) above
CDK9/CycT1, sequence (P50750 whole entry): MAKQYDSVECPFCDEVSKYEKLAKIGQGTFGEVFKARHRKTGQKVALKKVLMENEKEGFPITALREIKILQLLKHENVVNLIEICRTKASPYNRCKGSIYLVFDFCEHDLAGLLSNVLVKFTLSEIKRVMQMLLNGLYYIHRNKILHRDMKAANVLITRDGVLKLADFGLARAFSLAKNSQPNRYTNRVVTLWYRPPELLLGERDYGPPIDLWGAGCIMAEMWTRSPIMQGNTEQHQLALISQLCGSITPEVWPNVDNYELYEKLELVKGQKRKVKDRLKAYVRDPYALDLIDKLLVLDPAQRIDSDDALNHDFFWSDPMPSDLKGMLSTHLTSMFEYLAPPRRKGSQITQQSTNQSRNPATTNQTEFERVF
CDK9/CycT1, sequence (O60563 whole entry partner): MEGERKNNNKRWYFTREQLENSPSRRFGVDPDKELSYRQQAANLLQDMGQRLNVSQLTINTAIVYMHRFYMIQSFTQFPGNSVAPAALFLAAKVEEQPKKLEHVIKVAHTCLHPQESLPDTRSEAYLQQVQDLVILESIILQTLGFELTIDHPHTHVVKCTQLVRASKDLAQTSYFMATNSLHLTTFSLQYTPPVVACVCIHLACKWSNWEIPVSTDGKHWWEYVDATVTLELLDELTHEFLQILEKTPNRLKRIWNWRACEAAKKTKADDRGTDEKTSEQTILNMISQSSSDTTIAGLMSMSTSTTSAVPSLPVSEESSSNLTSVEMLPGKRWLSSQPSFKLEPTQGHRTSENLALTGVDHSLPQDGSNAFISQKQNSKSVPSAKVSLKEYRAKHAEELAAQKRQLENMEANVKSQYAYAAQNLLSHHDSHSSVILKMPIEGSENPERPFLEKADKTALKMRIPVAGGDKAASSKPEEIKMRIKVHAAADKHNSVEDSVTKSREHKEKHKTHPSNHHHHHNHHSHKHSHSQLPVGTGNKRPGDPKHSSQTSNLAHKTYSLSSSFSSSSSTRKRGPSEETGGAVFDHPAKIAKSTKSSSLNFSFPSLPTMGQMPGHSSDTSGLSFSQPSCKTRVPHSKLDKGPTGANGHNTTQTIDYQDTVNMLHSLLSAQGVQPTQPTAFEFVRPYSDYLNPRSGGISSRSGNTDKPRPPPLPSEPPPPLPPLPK
CDK5/p25NCK, sequence (Q00535 whole entry, species assumed): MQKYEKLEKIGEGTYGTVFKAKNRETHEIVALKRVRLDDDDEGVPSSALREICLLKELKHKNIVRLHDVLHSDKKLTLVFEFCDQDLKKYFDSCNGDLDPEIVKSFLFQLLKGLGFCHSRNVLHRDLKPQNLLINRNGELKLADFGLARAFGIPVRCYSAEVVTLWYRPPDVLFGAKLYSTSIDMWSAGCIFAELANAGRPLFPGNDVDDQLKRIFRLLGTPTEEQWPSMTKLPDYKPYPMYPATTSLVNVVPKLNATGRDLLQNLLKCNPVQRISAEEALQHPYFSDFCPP
CDK5/p25NCK, sequence (Q15078 99-307 partner limits assumed, species assumed): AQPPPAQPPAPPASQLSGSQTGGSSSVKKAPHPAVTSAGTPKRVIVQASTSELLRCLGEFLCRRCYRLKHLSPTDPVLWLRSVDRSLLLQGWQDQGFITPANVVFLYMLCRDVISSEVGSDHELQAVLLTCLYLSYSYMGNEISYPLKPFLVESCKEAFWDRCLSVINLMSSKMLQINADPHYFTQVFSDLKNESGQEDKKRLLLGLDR

| Compound | IC50 (CDK9/CycT1) [nM] | IC50 (CDK1/CycE1) [nM] | IC50 (CDK2/CycA2) [nM] | IC50 (CDK3/CycE1) [nM] | IC50 (CDK5/p25NCK) [nM] |
| --- | --- | --- | --- | --- | --- |
| CC(C)Nc1nc(C#N)cc2cnc(N[C@H]3CC[C@H](O)C3)nc12 [Compound 122, 2-(((1S,3S)-3-hydroxycyclopentyl)amino)-8-(isopropylamino)pyrido[3,4-d]pyrimidine-6-carbonitrile] | 1 | 3 | 6 | 8 | 17 |
| CC(C)Nc1nc(C(F)(F)F)cc2cnc(N[C@H]3CCCNC3)nc12 [Compound C46, (S)—N^8-isopropyl-N^2-(piperidin-3-yl)-6-(trifluoromethyl)pyrido[3,4-d]pyrimidine-2,8-diamine] | 2 | 19 | 33 | 8 | 60 |
| CCNc1nc(C#N)cc2cnc(N[C@H]3C[C@H](N)C3)cc12 [Compound 184, 7-(((trans)-3-aminocyclobutyl)amino)-1-(ethylamino)-2,6-naphthyridine-3-carbonitrile] | 1 | 163 | 125 | 990 | 96 |
| CC(C)Nc1nc(C#N)cc2cnc(NC34CC(N)(C3)C4)nc12 [Compound 128, 2-((3-aminobicyclo[1.1.1]pentan-1-yl)amino)-8-(isopropylamino)pyrido[3,4-d]pyrimidine-6-carbonitrile] | 2 | 43 | 54 | 34 | 65 |
| N#Cc1cc2cnc(N[C@H]3CCCNC3)cc2c(O[C@@H]2CCOC2)n1 [Compound 154, 7-(((S)-piperidin-3-yl)amino)-1-(((R)-tetrahydrofuran-3-yl)oxy)-2,6-naphthyridine-3-carbonitrile] | 5 | 1020 | 2320 | 371 | 3840 |
| N#Cc1cc2cnc(N[C@H]3CC[C@H](N)C3)cc2c(NCC2(C#N)CCOCC2)n1 [Compound 60, 7-(((1S,3S)-3-aminocyclopentyl)amino)-1-(((4-cyanotetrahydro-2H-pyran-4-yl)methyl)amino)-2,6-naphthyridine-3-carbonitrile] | 29 |  | 1810 | ≥ 12100 | 8390 |
| CC(C)Oc1nc(C#N)cc2cnc(N[C@H]3CC[C@H](N)C3)cc12 [Compound 51, 7-(((1S,3S)-3-aminocyclopentyl)amino)-1-isopropoxy-2,6-naphthyridine-3-carbonitrile] | 1 |  | 73 | 88 | 142 |
| CC(=O)N[C@@H]1CCC[C@H](C(=O)Nc2cc3c(NC(C)C)nc(CCO)cc3cn2)C1 [Compound 14, (1S,3R)-3-acetamido-N-(7-(2-hydroxyethyl)-5-(isopropylamino)-2,6-naphthyridin-3-yl)cyclohexane-1-carboxamide] | 11 |  | 284 | 91 | 187 |
| CC(=O)N[C@@H]1CCC[C@H](C(=O)Nc2cc3c(NC(C)C)nc(C#N)cc3cn2)C1 [Compound 2, (1S,3R)-3-acetamido-N-(7-cyano-5-(isopropylamino)-2,6-naphthyridin-3-yl)cyclohexane-1-carboxamide] | 8 |  | 669 | 179 | 783 |
| C#Cc1cc2cnc(NC(=O)[C@H]3CCC[C@@H](NC(C)=O)C3)cc2c(NC(C)C)n1 [Compound 13, (1S,3R)-3-acetamido-N-(7-ethynyl-5-(isopropylamino)-2,6-naphthyridin-3-yl)cyclohexane-1-carboxamide] | 13 |  | 402 | 41 | 527 |
| CC(C)(C)Nc1nc(C#N)cc2cnc(N[C@H]3CC[C@H](O)C3)cc12 [Compound 35, 1-(tert-butylamino)-7-(((1S,3S)-3hydroxycyclopentyl)amino)-2,6-naphthyridine-3-carbonitrile] | 1 |  | 14 | 35 | 36 |
| CC1(Nc2nc(C#N)cc3cnc(N[C@H]4CC[C@H](N)C4)cc23)CC1 [Compound 50, 7-(((1S,3S)-3-aminocyclopentyl)amino)-1-((1-methylcyclopropyl)amino)-2,6-naphthyridine-3-carbonitrile] | 2 |  | 73 | 208 | 119 |
| N#Cc1cc2cnc(N[C@H]3CC[C@H](N)C3)cc2c(NC2CCCC2)n1 [Compound 49, 7-(((1S,3S)-3-aminocyclopentyl)amino)-1-(cyclopentylamino)-2,6-naphthyridine-3-carbonitrile] | 2 |  | 57 | 105 | 93 |
| CCC(CC)Nc1nc(C#N)cc2cnc(N[C@H]3CC[C@H](N)C3)cc12 [Compound 48, 7-(((1S,3S)-3-aminocyclopentyl)amino)-1-(pentan-3-ylamino)-2,6-naphthyridine-3-carbonitrile] | 2 |  | 199 | 477 | 266 |
| N#Cc1cc2cnc(N[C@H]3CCCNC3)cc2c(N[C@H](CO)c2ccccc2)n1 [Compound 104, 1-(((S)-2-hydroxy-1-phenylethyl)amino)-7-(((S)-piperidin-3-yl)amino)-2,6-naphthyridine-3-carbonitrile] | 10 |  | 888 | 550 | 2200 |
| CC(=O)N1CCC[C@H](C(=O)Nc2cc3c(NC(C)C)nc(C#N)cc3cn2)C1 [Compound 24, (S)-1-acetyl-N-(7-cyano-5-(isopropylamino)-2,6-naphthyridin-3-yl)piperidine-3-carboxamide] | 26 |  | 3340 | 862 | 5340 |

Next, values leading:

| IC50 (CDK9/CycT1) [nM] | IC50 (CDK1/CycE1) [nM] | IC50 (CDK2/CycA2) [nM] | IC50 (CDK3/CycE1) [nM] | IC50 (CDK5/p25NCK) [nM] | Compound |
| --- | --- | --- | --- | --- | --- |
| 2 | 83 | 110 | 66 | 103 | CC(C)Nc1nc(C#N)cc2cnc(N[C@H]3CCCNC3)cc12 [Compound 38, (S)-1-(isopropylamino)-7-(piperidin-3-ylamino)-2,6-naphthyridine-3-carbonitrile] |
| 3 | 173 | 227 | 124 | 484 | CC(Nc1nc(C#N)cc2cnc(N[C@H]3CCCNC3)cc12)C(F)(F)F (stereo partly drawn) [Compound 61, 7-(((S)-piperidin-3-yl)amino)-1-((1,1,1-trifluoropropan-2-yl)amino)-2,6-naphthyridine-3-carbonitrile] |
| 3 | 234 | 489 | 1480 | 435 | N#Cc1cc2cnc(N[C@H]3CCCNC3)cc2c(NC2CC2)n1 [Compound 175, (S)-1-(cyclopropylamino)-7-(piperidin-3-ylamino)-2,6-naphthyridine-3-carbonitrile] |
| 4 |  | 514 | 1210 | 461 | CC(C)Nc1nc(C#N)cc2cnc(N[C@H]3CC[C@@H](N)C3)cc12 [Compound 29, 7-(((1S,3R)-3-aminocyclopentyl)amino)-1-(isopropylamino)-2,6-naphthyridine-3-carbonitrile] |
| 2 |  | 84 | 278 | 161 | CC(C)Nc1nc(C#N)cc2cnc(N[C@@H]3CCCNC3)cc12 [Compound 39, (R)-1-(isopropylamino)-7-(piperidin-3-ylamino)-2,6-naphthyridine-3-carbonitrile] |
| 2 |  | 1170 | 288 | 3630 | CC(C)Nc1nc(C#N)cc2cnc(N[C@@H]3CN4CCC3CC4)cc12 [Compound 44, (S)-1-(isopropylamino)-7-(quinuclidin-3-ylamino)-2,6-naphthyridine-3-carbonitrile] |
| 2 |  | 13 | 75 | 23 | CC(C)Nc1nc(C#N)cc2cnc(N[C@@H]3CNCC(F)(F)C3)cc12 [Compound 43, (S)-7-((5,5-difluoropiperidin-3-yl)amino)-1-(isopropylamino)-2,6-naphthyridine-3-carbonitrile] |
